In ChEMBL document CHEMBL3351877, “Synthesis and identification of α-cyano bis(indolyl)chalcones as novel anticancer agents” (Bioorg Med Chem Lett, 2014):
Activity calls are given as the source filed them. No cut-off for these calls is given here.

Columns and labels:
[1] = Cytotoxicity against human PC3 cells assessed as reduction in cell viability after 48 hrs by WST8 assay; assay type: functional, cell-based; settings: PC-3, 48 h
[2] = Cytotoxicity against human MIAPaCa2 cells assessed as reduction in cell viability after 48 hrs by WST8 assay; assay type: functional, cell-based; settings: MIA PaCa-2, 48 h
[3] = tested on: A549; assay: Cytotoxicity against human A549 cells assessed as reduction in cell viability after 24 hrs by WST8 assay; assay type: functional, cell-based; settings: A549, 24 h
[4] = tested on: A549; assay: Cytotoxicity against human A549 cells assessed as reduction in cell viability after 48 hrs by WST8 assay; assay type: functional, cell-based; settings: A549, 48 h
[5] = Cytotoxicity against human MIAPaCa2 cells assessed as reduction in cell viability after 24 hrs by WST8 assay; assay type: functional, cell-based; settings: MIA PaCa-2, 24 h
[6] = Cytotoxicity against human PC3 cells assessed as reduction in cell viability after 24 hrs by WST8 assay; assay type: functional, cell-based; settings: PC-3, 24 h
[7] = molecular target: Tubulin (Sus scrofa) (UniProt P02554+P02550); assay: Induction of porcine brain tubulin polymerization at 5 uM incubated for 10 to 40 mins by spectrophotometry
Tubulin (Sus scrofa), sequence (P02550 whole entry, looked up): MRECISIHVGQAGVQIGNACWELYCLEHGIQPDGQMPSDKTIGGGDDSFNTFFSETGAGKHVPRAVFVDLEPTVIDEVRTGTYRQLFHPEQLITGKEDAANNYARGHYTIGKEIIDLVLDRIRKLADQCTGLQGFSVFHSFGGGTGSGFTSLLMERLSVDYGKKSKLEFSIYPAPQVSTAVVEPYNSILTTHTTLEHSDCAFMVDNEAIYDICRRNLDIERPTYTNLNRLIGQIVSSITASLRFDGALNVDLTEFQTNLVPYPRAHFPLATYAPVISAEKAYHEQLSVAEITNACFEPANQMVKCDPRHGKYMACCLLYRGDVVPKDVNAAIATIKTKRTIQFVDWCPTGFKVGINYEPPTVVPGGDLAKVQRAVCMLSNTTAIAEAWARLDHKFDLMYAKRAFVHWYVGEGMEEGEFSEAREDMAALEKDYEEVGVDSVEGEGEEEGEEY
Tubulin (Sus scrofa), sequence (P02554 whole entry, looked up): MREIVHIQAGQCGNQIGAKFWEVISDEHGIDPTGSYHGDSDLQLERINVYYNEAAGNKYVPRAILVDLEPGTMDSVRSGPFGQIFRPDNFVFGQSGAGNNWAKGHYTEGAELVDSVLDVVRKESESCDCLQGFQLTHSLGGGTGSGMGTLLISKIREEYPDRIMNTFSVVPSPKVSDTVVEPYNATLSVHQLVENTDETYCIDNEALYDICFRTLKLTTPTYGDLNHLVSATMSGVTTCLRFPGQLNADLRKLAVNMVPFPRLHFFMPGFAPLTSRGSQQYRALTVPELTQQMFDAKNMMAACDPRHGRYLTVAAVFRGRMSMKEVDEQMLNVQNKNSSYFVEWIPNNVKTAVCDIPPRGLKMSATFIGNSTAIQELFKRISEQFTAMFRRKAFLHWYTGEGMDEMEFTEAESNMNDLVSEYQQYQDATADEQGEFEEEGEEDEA

Activity [7]	Structure (SMILES)	IC50 [1]	IC50 [2]	IC50 [3]	IC50 [4]	IC50 [5]	IC50 [6]
	COc1ccc2[nH]cc(/C=C(\C#N)C(=O)c3c[nH]c4ccc(OC)cc34)c2c1	> 50 µM	> 50 µM	> 50 µM	24.5 µM	28.5 µM	> 50 µM
	COc1ccc2c(C(=O)/C(C#N)=C/c3c[nH]c4ccc(OC)cc34)c[nH]c2c1	37.1 µM	> 50 µM	3.7 µM	5.5 µM	> 50 µM	31.1 µM
Active	COc1ccc(Cn2cc(/C=C(\C#N)C(=O)c3c[nH]c4cc(OC)ccc34)c3ccccc32)cc1	> 50 µM	> 50 µM	37.4 µM	28.9 µM	> 50 µM	> 50 µM
Active	COc1ccc2c(C(=O)/C(C#N)=C/c3c[nH]c4ccccc34)c[nH]c2c1	12 µM	> 50 µM	6.4 µM	7.5 µM	13.5 µM	> 50 µM
	COc1ccc2c(C(=O)/C(C#N)=C/c3cn(Cc4ccc(Cl)cc4)c4ccccc34)c[nH]c2c1	> 50 µM	40.4 µM	> 50 µM	> 50 µM	> 50 µM	> 50 µM
	COc1ccc2[nH]cc(C(=O)/C(C#N)=C/c3c[nH]c4cc(F)ccc34)c2c1	> 50 µM	> 50 µM	> 50 µM	> 50 µM	> 50 µM	> 50 µM
	COc1ccc2c(/C=C(\C#N)C(=O)c3c[nH]c4ccccc34)c[nH]c2c1	12.5 µM	> 50 µM	9.6 µM	5.8 µM	27.5 µM	33.3 µM
	N#C/C(=C\c1c[nH]c2cc(F)ccc12)C(=O)c1c[nH]c2ccccc12	> 50 µM	31.6 µM	17 µM	22.7 µM	23.5 µM	> 50 µM
	CO[C@@]12[C@H](COC(N)=O)C3=C(C(=O)C(C)=C(N)C3=O)N1C[C@@H]1N[C@@H]12 [MITOMYCIN]			0.45 µM			
Active	COc1ccc2c(/C=C(\C#N)C(=O)c3c[nH]c4cc(OC)ccc34)c[nH]c2c1	27 µM	> 50 µM	1.9 µM	1.7 µM	> 50 µM	> 50 µM
	COc1ccc(-c2[nH]c3ccccc3c2/C=C(\C#N)C(=O)c2c[nH]c3ccccc23)cc1	8.1 µM	> 50 µM	4.9 µM	3 µM	24 µM	17.2 µM
	COc1ccc(Cn2cc(/C=C(\C#N)C(=O)c3c[nH]c4cc(F)ccc34)c3ccccc32)cc1	> 50 µM	29.4 µM	> 50 µM	36.3 µM	> 50 µM	> 50 µM
	N#C/C(=C\c1cn(Cc2ccc(Cl)cc2)c2ccccc12)C(=O)c1c[nH]c2cc(F)ccc12	> 50 µM	16.6 µM	> 50 µM	> 50 µM	> 50 µM	> 50 µM
	COc1ccc(Cn2cc(/C=C(\C#N)C(=O)c3c[nH]c4ccccc34)c3ccccc32)cc1	> 50 µM	> 50 µM	> 50 µM	> 50 µM	> 50 µM	> 50 µM
	COc1ccc2[nH]cc(/C=C(\C#N)C(=O)c3c[nH]c4ccccc34)c2c1	30.5 µM	25.1 µM	6.6 µM	13.7 µM	21.2 µM	33.2 µM
	COc1ccc2[nH]cc(/C=C(\C#N)C(=O)c3c[nH]c4cc(F)ccc34)c2c1	> 50 µM	> 50 µM	18 µM	26.3 µM	> 50 µM	> 50 µM
	N#C/C(=C\c1cn(Cc2ccc(Cl)cc2)c2ccccc12)C(=O)c1c[nH]c2ccccc12	> 50 µM	> 50 µM	> 50 µM	> 50 µM	> 50 µM	> 50 µM
	N#C/C(=C\c1c[nH]c2ccccc12)C(=O)c1c[nH]c2ccccc12	> 50 µM	36.8 µM	16.1 µM	22 µM	17.9 µM	> 50 µM
	N#C/C(=C\c1c[nH]c2ccc(Br)cc12)C(=O)c1c[nH]c2ccc(Br)cc12	> 50 µM	> 50 µM	> 50 µM	> 50 µM	> 50 µM	> 50 µM
	Cn1cc(/C=C(\C#N)C(=O)c2c[nH]c3ccccc23)c2ccccc21	> 50 µM	> 50 µM	27.9 µM	> 50 µM	31.6 µM	> 50 µM
	COc1ccc2c(/C=C(\C#N)C(=O)c3c[nH]c4cc(F)ccc34)c[nH]c2c1	21.4 µM	> 50 µM	10.3 µM	5.5 µM	> 50 µM	> 50 µM
	N#C/C(=C\c1c[nH]c2cc(F)ccc12)C(=O)c1c[nH]c2cc(F)ccc12	> 50 µM	> 50 µM	> 50 µM	36.1 µM	> 50 µM	> 50 µM
	COc1ccc2c(C(=O)/C(C#N)=C/c3c[nH]c4cc(F)ccc34)c[nH]c2c1	22.5 µM	> 50 µM	2.4 µM	0.8 µM	> 50 µM	36 µM
	N#C/C(=C\c1cn(Cc2ccc(Cl)cc2)c2ccc(Br)cc12)C(=O)c1c[nH]c2ccccc12	36.5 µM	> 50 µM	14 µM	24.9 µM	37.7 µM	47.1 µM
